This note sets out measurements from US7544803B2, “Vanilloid receptor ligands and their use in treatments” (Amgen Inc., priority 2004, dated 2009).

Compound `O=C(Nc1ccc2cccnc2c1)c1cc2ccc(C(F)(F)F)cc2s1` registered a melting point of 229.7 °C.

Take `O=C(Nc1ccc2cccnc2c1)c1cc2ncc(C(F)(F)F)cc2s1` [Example 6, 6-Trifluoromethyl-thieno[3,2-b]pyridine-2-carboxylic acid quinolin-7-ylamide]: the melting point was 296 °C.

The compound `O=C(Nc1ccc2cccnc2c1)c1ccc2cc(Br)ccc2c1` [Example 32, 6-Bromo-naphthalene-2-carboxylic acid quinolin-7-ylamide] showed a melting point of 239.5 to 241.5 °C.

`O=C(Nc1ccc2cccnc2c1)c1ccc2cc(Br)ccc2n1` [Example 36, 6-Bromo-quinoline-2-carboxylic acid quinolin-7-ylamide] had a melting point of 156 to 157 °C.
